Experimental data: patent publication US11396517B1, “Exo-aza spiro inhibitors of menin-MLL interaction” (Janssen Pharmaceutica NV, priority 2017, dated 2022)
Read-outs that look alike come from different tables or passages of the source.

Experiments:
menin = target: T1, menin (Homo sapiens, UniProt O00255, T541A); experiment: Menin/MLL homogenous time-resolved fluorescence (HTRF) assay; type: binding
T1 construct: Menin (a.a. 1-610-6×his tag)
T1 sequence (O00255 with tags, fused parts or gaps T541A): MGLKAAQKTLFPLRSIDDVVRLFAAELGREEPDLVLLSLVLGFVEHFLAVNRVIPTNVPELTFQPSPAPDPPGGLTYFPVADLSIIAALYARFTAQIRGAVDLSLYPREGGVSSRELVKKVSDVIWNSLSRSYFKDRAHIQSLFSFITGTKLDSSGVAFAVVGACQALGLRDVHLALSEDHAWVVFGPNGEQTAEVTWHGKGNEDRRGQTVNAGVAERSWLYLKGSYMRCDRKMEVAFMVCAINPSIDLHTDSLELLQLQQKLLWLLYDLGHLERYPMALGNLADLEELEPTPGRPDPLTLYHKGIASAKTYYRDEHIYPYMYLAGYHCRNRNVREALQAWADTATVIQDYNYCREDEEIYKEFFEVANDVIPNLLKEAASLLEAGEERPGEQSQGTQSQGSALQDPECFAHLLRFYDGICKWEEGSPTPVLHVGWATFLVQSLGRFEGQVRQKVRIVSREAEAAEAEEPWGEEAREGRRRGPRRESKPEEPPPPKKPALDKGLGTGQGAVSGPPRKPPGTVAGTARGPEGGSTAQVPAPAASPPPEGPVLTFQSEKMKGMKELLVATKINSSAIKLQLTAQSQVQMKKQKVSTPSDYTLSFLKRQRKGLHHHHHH
Method in brief: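 Terbium-labeled menin (aa 1-610, His-tagged; […]) preincubated 5 min with compound, then 75 nM FITC-MBM1 peptide for 15 min, ambient, Tris pH 7.5, 0.5% DMSO. HTRF 520/490 ratio; 11-point 3-fold titration; IC50 from % inhibition fit.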

MOLM14 = experiment: Proliferation assay B (spheroid assay) MOLM14; type: cell-based, human; conditions: MOLM14 cells, confluence at day 8, absolute IC50, read-out: (3b) Spheroid assay MOLM14 (IC50(μM)) Assay B
Protocol: 3b) Proliferation Assay B
The anti-proliferative effect of menin/MLL protein/protein interaction inhibitor test compounds was assessed in human leukemia cell lines. The cell lines MV-4-11 and MOLM14 harbor MILL translocations and express the MILL fusion proteins MLL-AF4 and MLL-AF9, respectively, as well as the wildtype protein from the second allele. […] K562 was used as a control cell line containing two MLL wildtype alleles in order to exclude compounds that display general cytotoxic effects.
MV-4-11 and MOLM14 were cultured in RPMI-1640 (Sigma Aldrich) supplemented with 10% fetal bovine serum (HyClone), 2 mM L-glutamine (Sigma Aldrich) and 50 μg/ml gentamycin (Gibco). K562 were propagated in RPMI-1640 (Sigma Aldrich) supplemented with 20% fetal bovine serum (HyClone), 2 mM L-glutamine (Sigma Aldrich) and 50 μg/ml gentamycin (Gibco).
In order to assess the anti-proliferative effects, 1,500 MV-4-11, 300 MOLM14 cells or 750 K562 cells were seeded in 200 μl media per well in 96-well round bottom, ultra-low attachment plates (Costar, catalogue number 7007). Cell seeding numbers were chosen based on growth curves to ensure linear growth throughout the experiment. Test compounds were added at different concentrations and the DMSO content was normalized to 0.3%. Cells were incubated for 8 d at 37° C. and 5% CO2. Spheroid like growth was measured in real-time by live-cell imaging (IncuCyteZOOM, Essenbio, 4× objective) acquiring images at day 8. Confluence (%) as a measure of spheroid size was determined using an integrated analysis tool.
In order to determine the effect of the test compounds over time, the confluence in each well as a measure of spheroid size, was calculated. Confluence […] at the beginning of the experiment (t=0) was used as baseline for the calculation.
Absolute IC50 values were calculated as percent change in confluence as follows:
LC=Low Control: cells treated with 1 μM of the cytotoxic agent staurosporin
HC=High Control: Mean confluence (%) (DMSO treated cells) % Effect=100−(100*(Sample−LC)/(HC−LC))
To determine the IC50 a curve is fitted to the plot of % Effect vs Log 10 compound concentration using a sigmoidal fit with a variable slope and fixing the maximum to 100% and the minimum to 0%.

[1] = location 2, read-out: (2) location 2 Menin HTRF assay (IC50 (nM))

Structure (SMILES)	IC50 (menin; [1])	IC50 (MOLM14; Homo sapiens, MOLM-14, 192 h)	IC50 (MOLM14)	IC50 (menin; location 1, read-out: (2) location 1 Menin HTRF assay (IC50 (nM)))
CS(=O)(=O)NCc1ccc(NC2CC3(CCN(c4ncnc5sc(CC(F)(F)F)cc45)C3)C2)cc1 (single isomer, unassigned) [Compound 367]	63.6 nM	> 3.75 µM	–	–
CS(=O)(=O)NCc1ccc(NC2CC3(CCN(c4ncnc5sc(CC(F)(F)F)cc45)C3)C2)cc1 (single isomer, unassigned) [Compound 368]	2.9 nM	–	2.61 µM	–
N#CCc1ccc(NC2CC3(CCN(c4nc(N)nc5sc(CC(F)(F)F)cc45)C3)C2)cc1 (single isomer, unassigned) [Compound 379]	1.4 nM	> 3.75 µM	–	–
Nc1nc(N2CCC3(CC(Nc4ccc5[nH]c(=O)[nH]c5c4)C3)C2)c2cc(CC(F)(F)F)sc2n1 (single isomer, unassigned) [Compound 382]	27.9 nM	> 3.75 µM	–	–
CNc1nc(N2CCC3(CC(Nc4ccc5[nH]c(=O)[nH]c5c4)C3)C2)c2cc(CC(F)(F)F)sc2n1 (single isomer, unassigned) [Compound 394]	13.8 nM	> 3.75 µM	–	–
CNc1nc(N2CCC3(CC(Nc4ccc5oc(=O)[nH]c5c4)C3)C2)c2cc(CC(F)(F)F)sc2n1 (single isomer, unassigned) [Compound 397]	4.4 nM	> 3.75 µM	–	–
CNc1nc(N2CCC3(CC(Nc4ccc5oc(=O)[nH]c5c4)C3)C2)c2cc(CC(F)(F)F)sc2n1 (single isomer, unassigned) [Compound 398]	16.2 nM	–	> 3.75 µM	–
CC1CN(C(=O)c2ccc(NC3CC4(CCN(c5ncnc6sc(CC(F)(F)F)cc56)C4)C3)cc2)CC(C)O1 (single isomer, unassigned) [Compound 405]	1100 nM	> 3.75 µM	–	–
CC1CN(C(=O)c2ccc(NC3CC4(CCN(c5ncnc6sc(CC(F)(F)F)cc56)C4)C3)cc2)CC(C)O1 (single isomer, unassigned) [Compound 406]	36 nM	–	> 3.75 µM	–
COC[C@H]1COCCN1C(=O)c1ccc(NC2CC3(CCN(c4ncnc5sc(CC(F)(F)F)cc45)C3)C2)cc1 (single isomer, unassigned) [Compound 407]	1020 nM	> 3.75 µM	–	–
COC[C@H]1COCCN1C(=O)c1ccc(NC2CC3(CCN(c4ncnc5sc(CC(F)(F)F)cc45)C3)C2)cc1 (single isomer, unassigned) [Compound 408]	16.4 nM	–	> 3.75 µM	–
O=C(c1ccc(NC2CC3(CCN(c4ncnc5sc(CC(F)(F)F)cc45)C3)C2)cc1)N1CCS(=O)(=O)CC1 (single isomer, unassigned) [Compound 411]	101 nM	> 3.75 µM	–	–
O=C(c1ccc(NC2CC3(CCN(c4ncnc5sc(CC(F)(F)F)cc45)C3)C2)cc1)N1CCS(=O)(=O)CC1 (single isomer, unassigned) [Compound 412]	7510 nM	–	> 3.75 µM	–
CNC(=O)c1cnc(NC2CC3(CCN(c4ncnc5sc(CC(F)(F)F)cc45)C3)C2)cn1 (single isomer, unassigned) [Compound 418]	749 nM	> 3.75 µM	–	–
CNC(=O)c1cnc(NC2CC3(CCN(c4ncnc5sc(CC(F)(F)F)cc45)C3)C2)cn1 (single isomer, unassigned) [Compound 419]	10.8 nM	–	3.04 µM	–
O=C(c1ccc(NC2CC3(CCN(c4ncnc5sc(CC(F)(F)F)cc45)C3)C2)nn1)N1CCOCC1 (single isomer, unassigned) [Compound 420]	3380 nM	> 3.75 µM	–	–
O=C(c1ccc(NC2CC3(CCN(c4ncnc5sc(CC(F)(F)F)cc45)C3)C2)nn1)N1CCOCC1 (single isomer, unassigned) [Compound 421]	208 nM	–	> 3.75 µM	–
CNC(=O)c1ccc(N[C@@H]2CC[C@@]3(CCN(c4ncnc5sc(CC(F)(F)F)cc45)C3)C2)cc1 (stereo in doubt) [Compound 134]	1.6 nM	1.29 µM	–	–

Structure (SMILES)	IC50 (menin; [1])	IC50 (MOLM14; Homo sapiens, MOLM-14, 192 h)	IC50 (MOLM14)	IC50 (menin; location 1, read-out: (2) location 1 Menin HTRF assay (IC50 (nM)))
CNC(=O)c1ccc(N[C@H]2CC[C@@]3(CCN(c4ncnc5sc(CC(F)(F)F)cc45)C3)C2)cc1 (stereo in doubt) [Compound 135]	23.9 nM	> 3.75 µM	–	–
CNC(=O)c1ccc(N[C@@H]2CC[C@]3(CCN(c4ncnc5sc(CC(F)(F)F)cc45)C3)C2)cc1 (stereo in doubt) [Compound 136]	409 nM	> 3.75 µM	–	–
CNC(=O)c1ccc(N[C@H]2CC[C@]3(CCN(c4ncnc5sc(CC(F)(F)F)cc45)C3)C2)cc1 (stereo in doubt) [Compound 137]	5.7 nM	> 3.75 µM	–	–
FC(F)(F)Cc1cc2c(N3CC[C@@]4(CC[C@@H](Nc5ccc(-c6cc[nH]n6)cc5)C4)C3)ncnc2s1 (stereo in doubt) [Compound 139]	3.5 nM	0.56 µM	–	–
FC(F)(F)Cc1cc2c(N3CC[C@@]4(CC[C@H](Nc5ccc(-c6cc[nH]n6)cc5)C4)C3)ncnc2s1 (stereo in doubt) [Compound 140]	30.9 nM	1.82 µM	–	–
FC(F)(F)Cc1cc2c(N3CC[C@]4(CC[C@@H](Nc5ccc(-c6cc[nH]n6)cc5)C4)C3)ncnc2s1 (stereo in doubt) [Compound 141]	3.9 nM	2.3 µM	–	–
FC(F)(F)Cc1cc2c(N3CC[C@]4(CC[C@H](Nc5ccc(-c6cc[nH]n6)cc5)C4)C3)ncnc2s1 (stereo in doubt) [Compound 142]	45.7 nM	0.6 µM	–	–
CNC(=O)c1ccc(NC2CC3(CCN(c4ncnc5sc(CC(F)(F)F)cc45)C3)C2)c(F)c1 (stereo not shown) [Compound 66]	26.8 nM	> 3.75 µM	–	–
CNC(=O)c1ccc(NC2CC3(CCN(c4ncnc5sc(CC(F)(F)F)cc45)C3)C2)cc1OCCN(C)C (stereo not shown) [Compound 76]	354 nM	> 3.75 µM	–	–
O=C(NCCO)c1ccc(NC2CC3(CCN(c4ncnc5sc(CC(F)(F)F)cc45)C3)C2)cc1 (stereo not shown) [Compound 83]	58.7 nM	> 3.75 µM	–	–
COCCNC(=O)c1ccc(NC2CC3(CCN(c4ncnc5sc(CC(F)(F)F)cc45)C3)C2)cc1 (stereo not shown) [Compound 85]	0.7 nM	1.13 µM	–	–
O=C(NCCN1CCOCC1)c1ccc(NC2CC3(CCN(c4ncnc5sc(CC(F)(F)F)cc45)C3)C2)cc1 (stereo not shown) [Compound 87]	191 nM	> 3.75 µM	–	–
CS(=O)(=O)N[C@H]1CC[C@H](NC2CC3(CCN(c4ncnc5sc(CC(F)(F)F)cc45)C3)C2)CC1 (stereo partly shown) [Compound 102]	362 nM	> 3.75 µM	–	342 nM
CCS(=O)(=O)N[C@H]1CC[C@H](CNC2CC3(CCN(c4ncnc5sc(CC(F)(F)F)cc45)C3)C2)CC1 (stereo partly shown) [Compound 106]	17.8 nM	3.39 µM	–	–
O=C1NCCN1Cc1ccc(NC2CC3(CCN(c4ncnc5sc(CC(F)(F)F)cc45)C3)C2)cc1 (stereo not shown) [Compound 107]	22.1 nM	> 3.75 µM	–	–
CNC(=O)c1ccc(NC2CC3(CCN(c4ncnc5sc(CC(F)(F)F)cc45)C3)C2)cc1F (stereo not shown) [Compound 203]	2.8 nM	2.39 µM	–	–
CNC(=O)c1ccc(NC2CC3(CCN(c4ncnc5sc(CC(F)(F)F)cc45)C3)C2)c(C)c1 (stereo not shown) [Compound 212]	58.1 nM	–	> 3.75 µM	–
CNC(=O)c1ccc(NC2CC3(CCN(c4ncnc5sc(CC(F)(F)F)cc45)C3)C2)cc1C (stereo not shown) [Compound 237]	489 nM	–	> 3.75 µM	–
